Test results as given in publication PMC6057649, “Development of NanoLuc-PEST expressing Leishmania mexicana as a new drug discovery tool for axenic- and intramacrophage-based assays” (PLoS Neglected Tropical Diseases, 2018).

Test system: NanoLuc-PEST expressing L. mexicana axenic amastigotes
Experiment: microbe, parasite or virus in culture
Format: cell-based
Conditions: for Relative Bioluminescence (%) / viability at 2 µM / viability at 10 µM: 72 hours, relative to DMSO only control, n = 4; for viability at 2 µM / viability at 10 µM: Leishmania mexicana, read-out: Relative Bioluminescence (%); for EC50: read-out: EC50, Axenic Amastigotes
[1] = hit compounds from the axenic amastigote screen, S3 Table

| Compound | Relative Bioluminescence (%) (2 µM compound) | Relative Bioluminescence (%) (10 µM compound) | other results |
| --- | --- | --- | --- |
| CC(C)(C)n1nc(Cc2ccc(F)c(Cl)c2)c2c(N)ncnc21 [MMV688852] | 73.28 | 34.77 | – |
| COc1nc2ccc(Br)cc2cc1[C@@H](c1ccccc1)[C@@](O)(CCN(C)C)c1cccc2ccccc12 [MMV689758, Bedaquiline, reference compound] | – | – | viability at 2 µM (2 µM compound): 94.9%; viability at 10 µM (10 µM compound): 45.4% |
| O=S(=O)(c1ccc(Cl)cc1)N1CCN(C(=S)NCc2ccco2)CC1 [MMV000858] | 100.91 | 108.52 | – |
| Nc1ncc(-c2ccc(C(F)(F)F)nc2)cc1-c1ccc(C(F)(F)F)nc1 [MMV668727] | 68.46 | 78.89 | – |
| O=C(Nc1nc(-c2ccccn2)cs1)c1cncn1-c1ccccc1 [MMV676512] | 15.66 | -0.58 | – |
| c1coc(CNc2nc(N3CCCCC3)nc3ccccc23)c1 [MMV676401] | 91.23 | 75.18 | – |
| Cc1cc(OCC(=O)Nc2ccc(C(C)C)cc2)n(C)c(=O)c1C#N [MMV1198433] | 82.52 | 91.16 | – |
| CCOC(=O)c1cc(-c2csc(Nc3c(C)cc(C)cc3C)n2)on1 [MMV676461] | 79.84 | 54.88 | – |
| CCCc1ccc(S(=O)(=O)Nc2ccc(CN3CCN(CC4CC4)CC3)cc2)cc1 [MMV688125] | 86.53 | 100.33 | – |
| CC(Oc1cccc(Cl)c1)C(=O)Nc1ccc2oc(-c3ccncc3)nc2c1 (stereo not drawn) [MMV688472] | 83.48 | 74.96 | – |
| CC(C)(C)n1nc(Cc2cccc3ccccc23)c2c(N)ncnc21 [MMV676599] | 80.19 | 31.83 | – |
| Nc1nccc2ccc(-c3ccc4nccn4c3)cc12 [MMV023233] | 106.85 | 120.49 | – |
| FC(F)(F)c1cnc(Sc2nnc(-c3ccncc3)o2)c(Cl)c1 [MMV011765] | 84.80 | 45.24 | – |
| O=C(Nc1nnc(-c2ccc(Cl)cc2)o1)c1cccc(C(F)(F)F)c1 [MMV102872] | 0.33 | -0.65 | EC50 [1]: 810 nM |
| O=C(NCc1nnc2n1CCCCC2)c1ccc(-c2ccc(F)cc2)o1 [MMV688796] | 88.65 | 91.91 | – |
| CC(=O)NC[C@H]1CN(c2ccc(N3CCOCC3)c(F)c2)C(=O)O1 [MMV687803, Linezolid, reference compound] | – | – | viability at 2 µM (2 µM compound): 76.5%; viability at 10 µM (10 µM compound): 111% |
| Nc1nc(N)c2c3c(sc2n1)CN(Cc1ccccc1)CC3 [MMV688345] | 105.25 | 69.94 | – |
| O=C([C@@H](c1ccc(Cl)cc1)c1cccnc1)N1CCN(c2ccc(C(F)(F)F)cc2)CC1 [MMV689244] | 23.97 | 0.66 | – |
| Cc1nc(-c2ccccn2)nc(N(C)CCc2ccccc2)c1Cl [MMV658988] | 32.93 | -2.26 | – |
| CN(C)CCNC(=O)N1CCCN(c2ncnc3cc(-c4ccccc4)sc23)CC1 [MMV024195] | 89.61 | 76.61 | – |

| Compound | Relative Bioluminescence (%) (2 µM compound) | Relative Bioluminescence (%) (10 µM compound) | other results |
| --- | --- | --- | --- |
| CC(C)(C)OC(=O)N1CCN(c2cc(-c3ccc(Oc4ccccc4)cc3)n[nH]2)CC1 [MMV676057] | 119.16 | 36.52 | – |
| Cc1nc2ccccn2c1C(=O)NCc1ccc(Cl)cc1 [MMV012074] | 98.27 | 123.86 | – |
| COC(=O)Nc1nc2ccc(C(=O)c3ccccc3)cc2[nH]1 [MMV003152, Mebendazole, reference compound] | – | – | viability at 2 µM (2 µM compound): 0.9%; viability at 10 µM (10 µM compound): -0.49%; EC50, Axenic Amastigotes [1]: could not be resolved |
| COc1ccc(C2CC(c3cccs3)=NN2C(=O)c2ccco2)cc1OC (stereo not drawn) [MMV019234] | 106.08 | 39.61 | – |
| COc1cccc(-n2nnnc2S(C)(=O)=O)c1 [MMV272144] | 2.64 | 0.19 | EC50 [1]: 640 nM |
| Clc1ccc(Cl)c(CO[C@H]2CCCC[C@@H]2n2ccnc2)c1 [MMV676048] | 104.27 | 53.90 | – |
| Cc1ccc2[nH]c(C3CCCNC3)c(-c3ccncc3)c2c1 (stereo not drawn) [MMV024311] | 109.56 | 88.36 | – |
| CC(C)(C)n1nc(-c2ccccc2)c2c(N)ncnc21 [MMV688548] | 78.88 | 77.20 | – |
| Cc1ccc2nc(C)c(-c3ccn(Cc4ccccc4)n3)n2c1 [MMV688939] | 75.51 | 51.85 | – |
| COc1cccc(-c2cc3c(Nc4cccnc4)nccc3[nH]2)c1 [MMV392832] | 70.60 | 51.50 | – |
| COc1cccc(NC(=O)c2c(NC(=O)c3cccnc3)sc3c2CCC3)c1 [MMV228911] | 73.96 | 11.53 | – |
| Cc1cc(C)c2cc(C(=O)NC3CCCCCCC3)[nH]c2c1 [MMV687146] | 98.04 | 84.77 | – |
| O=C(NC1=NCCS1)c1sc2cc(F)ccc2c1Cl [MMV676584] | 83.30 | 89.36 | – |
| Cc1ccc(-c2nc(CN(Cc3ccccn3)C(C)C)cs2)o1 [MMV1088520] | 70.72 | -3.27 | – |
| Cc1cccc(C(=O)Nc2ccnc(N(C)C3CCN(CC(C)C)CC3)c2)c1 [MMV024829] | 74.80 | 69.82 | – |
| CN1CCN(c2cc(-c3ccc(F)cc3)nc(-c3ccncc3)n2)CC1 [MMV688888] | 78.28 | 89.99 | – |
| O=C(Nc1ccc(C(F)(F)F)c(C(F)(F)F)c1)c1cc(Cl)ccc1O [MMV687807] | 0.88 | 0.53 | EC50 [1]: 250 nM |
| Cc1cc(NCCc2ccccc2)nc(NC(=N)Nc2ccc(Cl)cc2)n1 [MMV021660] | 89.16 | 56.67 | – |
| O=C1N(Cc2cc3ccccc3s2)CC2CN(Cc3ccccc3)CCN12 (stereo not drawn) [MMV084603] | 70.21 | 61.10 | – |
| CC1CCCCN1C(=O)NCCc1coc(-c2ccc(F)cc2)n1 (stereo not drawn) [MMV688797] | 76.99 | 71.92 | – |

| Compound | Relative Bioluminescence (%) (2 µM compound) | Relative Bioluminescence (%) (10 µM compound) | other results |
| --- | --- | --- | --- |
| Cc1cccc(-c2nc(Nc3ccncn3)c3sccc3n2)n1 [MMV688122] | 61.39 | 16.72 | – |
| CS(=O)(=O)Cc1nc2ccccc2oc1=O [MMV553002] | 72.57 | 58.91 | – |
| CCN(CC)CCCN1CCN(C(=O)c2cccc(-c3noc(C(F)(F)F)n3)c2)CC1 [MMV022236] | 74.51 | 94.61 | – |
| Cc1nnc(NC(=O)c2cn(-c3ccccc3)nc2-c2ccccc2C)o1 [MMV020320] | 47.21 | 0.21 | – |
| c1ccc(Oc2ccc(-c3cc(N4CCOCC4)n[nH]3)cc2)cc1 [MMV045105] | 73.02 | 44.11 | – |
| NCC[C@H](O)C(=O)N[C@@H]1C[C@H](N)[C@@H](O[C@H]2O[C@H](CN)[C@@H](O)[C@H](O)[C@H]2O)[C@H](O)[C@H]1O[C@H]1O[C@H](CO)[C@@H](O)[C@H](N)[C@H]1O [MMV687796, Amikacin, reference compound] | – | – | viability at 2 µM (2 µM compound): 79.3%; viability at 10 µM (10 µM compound): 58.2% |
| O=C(Nc1ccc(N2CCNCC2)nc1)c1oc(-c2ccccc2)nc1C(F)(F)F [MMV024937] | 68.74 | 69.28 | – |
| O=C(NC1CC1)c1ccc(CSCc2ccccc2Cl)o1 [MMV007803] | 113.68 | 107.95 | – |
| NCC(=O)N1CCn2c(nc(-c3ccccc3)c2Nc2ccc3c(c2)OCO3)C1 [MMV011691] | 105.27 | 73.17 | – |
| Cc1ccc(NC(=O)CC2COc3ccccc3O2)cc1Cl (stereo not drawn) [MMV676431] | 104.86 | 65.31 | – |
| C[C@H]1COC2(CCN(c3nc(=O)c4cc(C(F)(F)F)cc([N+](=O)[O-])c4s3)CC2)O1 [MMV676603] | 83.14 | 75.26 | – |
| Cc1cc2nc(NC(=O)C(C)(C)C)nc(Cl)c2n1Cc1ccc(Cl)cc1 [MMV688704] | 83.23 | 53.57 | – |
| O=C(c1ccco1)N(CCCn1ccnc1)c1nc2c(Cl)cccc2s1 [MMV688936] | 80.40 | 77.21 | – |
| COc1ccc2nccc(NC(=O)C3CCN(CCc4ccc(Cl)cc4)CC3)c2n1 [MMV688844] | 77.54 | 91.56 | – |
| COc1ccc(C2=NN(C3CCCCCC3)C(=O)C2(C)C)cc1OCCCCOc1ccc(-c2nn[nH]n2)cc1 [MMV690028] | 55.46 | 1.50 | – |
| Clc1cccc(C(c2ccc(CN3CCNCC3)cc2)n2ccnc2)c1 (stereo not drawn) [MMV663250] | 96.52 | 69.77 | – |
| CCCNC(=O)N1CCC2(CC1)CC(=O)c1cc(C)ccc1O2 [MMV085230] | 100.02 | 105.91 | – |
| O=C(Nc1cccc(Cl)c1)c1cnc(N2CCN(c3ccncc3)CC2)c(Cl)c1 [MMV024406] | 85.94 | 93.72 | – |
